# “Also recorded” adds a separate entry of the source.
# Key:
# [1] = test system: Wnt mediated branching morphogenesis in cultured embryonic kidneys; conditions: cultured mouse embryonic kidneys; cited from earlier work
# [2] = test system: regeneration of the tailfin (Wnt-dependent process); conditions: adult and juvenile fish, previously shown; cited from earlier work
# [3] = Plasma metabolism assay, human plasma; assay type: in vitro ADME; conditions: over 24 h; 2 μM, 37° C.
# Protocol: (§1) Plasma Metabolism Assay: Murine, rat, and human plasma, collected using acidified citrate dextrose (ACD) anticoagulant, were purchased from Bioreclamation (Westbury, N.Y.). IWP-L6 (27) was added to 1 mL of each plasma at a final concentration of 2 μM, the material was aliquoted into eppendorf tubes, and then incubated for the indicated time points in a 37° C. water bath. At each time point, an aliquot was removed and protein precipitated and compound extracted and analyzed as described above.
# [4] = Plasma metabolism assay, rat plasma; assay type: in vitro ADME
# Protocol: as §1
# [5] = S9 metabolism assay, murine liver S9 fractions; assay type: in vitro ADME, mouse; conditions: 2 μM, 37° C., NADPH-regenerating system
# Protocol: S9 Metabolism Assay: Male ICR/CD-1 mouse S9 fractions were purchased from Celsis/In Vitro Technologies (Baltimore, Md.). 50 μL (1 mg) of S9 protein was added to a 15 mL glass screw cap tube. 700 μL of a 50 mM Tris, pH 7.5 solution, containing the compound of interest was added on ice. The final concentration of compound after addition of all reagents was 2 μM. 250 μL of an NADPH-regenerating system (1.7 mg/mL NADP, 7.8 mg/mL glucose-6-phosphate, 6 U/mL glucose-6-phosphate dehydrogenase in 2% w/v NaHCO3/10 mM MgCl2) was added and the tube placed in a 37° C. shaking water bath. At varying time points after addition of phase I cofactors, the reaction was stopped by the addition of 1 mL of methanol containing an internal standard compound, n-benzylbenzamide, and formic acid. The samples were incubated 10 min at room temperature and then spun once at 975×g in the glass tube. The supernatant was spun a second time at 16,000×g for 5 min in a microcentrifuge. The supernatant was analyzed by LC-MS/MS. Analytical methods were developed for each compound using an AB SCIEX 3200-QTrap, a combination triple quadrupole/ion trap instrument. Compound transitions utilized for quantitation were as follows: IWP-L6 (27): 473.2 to 303.1; aniline: 171.2 to 127.0; n-benzylbenzamide (internal standard): 212.1 to 91.1. […]
# Relative solubility = assay type: physicochemical
# [6] = test system: phosphorylation of dishevelled 2 (Dv12) in HEK293 cells; assay: Phosphorylation of dishevelled 2 in HEK293 cells (gel electrophoresis); assay type: cell-based
# Source text: FIG. 4—The Porcn inhibitor, IWP-L6 (FIG. 3 Compound 27), blocks the phosphorylation of the cytoplasmic Wnt pathway effector Dv12 shown through gel electrophoresis.
# Among the five newly identified sub-nanomolar IWPs, compound 27 was selected for further biological evaluations and named IWP-L6. […] The in vivo stability of IWP-L6 (27) (FIG. 5) was further profiled. […] The major metabolites are the amide cleavage products. Similar species-dependent metabolitic profiles due to the involvement of carboxylesterase (CES) have been reported with other drug candidates (Eng, et al., 2010; Liu, et al., 2011) These observations are consistent with the elevated activity of CES in mouse and rat but not human (Berry, et al., 2009; Rudakova, et al., 2011; Bahar, et al., 2012).
# [7] = test system: Wnt mediated branching morphogenesis in cultured embryonic kidneys; assay: Branching morphogenesis in cultured mouse embryonic kidneys; assay type: cell-based
# Protocol: FIGS. 8A-B—(FIG. 8A) IWP-L6 (Compound 27) inhibits Wnt mediated branching morphogenesis in cultured embryonic kidneys. Hoxb7Cre; RosaTomato kidneys were dissected from E11.5 embryos and cultured at the air/media interface (Dodge, et al., 2012; Kamer, et al., 2010) Media was replaced every 24 hours. Images were captured every 24 hours using a Zeiss Lumar V12 fluorescent stereoscope. Magnitude: 80× at 0 hours and 24 hours; 60× at 48 hours. (FIG. 8B) The fold increase in the number of ureteric bud tips between time=0 and 48 hours for each treatment was quantified. Statistics were performed using Student T-test.
# IWP2 (2) has been previously shown to specifically and reversibly block Wnt signaling and Wnt mediated branching morphogenesis in cultured mouse embryonic kidneys (Kamer, et al., 2010; Dodge, et al., 2012, which are incorporated by reference herein). […] Embryonic day (E) 11.5 kidneys in media containing various doses (1 nM to 1 μM) of IWP-L6 (27) were cultured. […] In comparison, a dose of 5 μM of IWP-2 (2) was required to obtain similar results (Dodge, et al., 2012; Karner, et al., 2010).
# [8] = test system: posterior axis formation (Wnt/β-catenin dependent developmental process); assay: Zebrafish posterior axis formation assay; assay type: in vivo; conditions: zebrafish embryos, low micromolar concentrations, FIG. 7
# Protocol: Zebrafish embryos harboring a mCherry-based reporter of Wnt/β-catenin signaling (Moro, et al., 2012) were treated with increasing concentrations of IWP-L6 (FIG. 3 Compound 27) in the aquarium water. Fluorescence intensity of animals was quantified as before (Dodge et al., 2012). (FIG. 7B) Activity of the IWP compounds IWP-L6 (Compound 27), 30, 32, and 35 was measured using the posterior axis formation assay.
# [9] = test system: regeneration of the tailfin (Wnt-dependent process); assay: Zebrafish tailfin regeneration; assay type: in vivo
# Source text: Achieving transient repression of pathological Wnt response without incurring permanent damage to normal stem cell function is a key anticancer therapeutic goal.
# [10] = Plasma metabolism assay, murine plasma; assay type: in vitro ADME, mouse
# Protocol: as §1
# [11] = test system: cell-autonomous Wnt signaling in mouse fibroblasts (L cells); assay: Wnt signaling / Porcn-inhibiting activity, EC50 in mouse fibroblasts (L cells); assay type: cell-based
# Source text: The four IWP lead compounds (1-4) were identified in the initial screen of 200,000 compounds (ChemDiv, ChemBridge, ComGenex, Prestwick and TimTek libraries) bear similar molecular skeletons (FIG. 1). […] The phthalazinone moiety of IWP-1 (1) and pyrimidinone moiety of IWP-2-4 (2-4) can be considered to be exchangeable scaffolding motifs for the compounds. The benzothiazole moiety appears to be a conserved motif and the phenyl group tolerates both electronic and steric perturbations.
# While there is only 69% sequence identity between mouse Porcn and zebrafish Porcn, the in vitro EC50 values (FIG. 3) measured in mouse fibroblasts (L cells) correlate with the in vivo activity observed in fish but not linearly.
structure (smiles),measurement,setting,value
Cc1ccc2nc(NC(=O)CSc3nc4c(c(=O)n3-c3ccccc3)SCC4)sc2c1 [IWP-2],dose required to obtain similar results (block of branching morphogenesis),[1],5 µM
Cc1ccc2nc(NC(=O)CSc3nc4c(c(=O)n3C)SC(C)C4)sc2c1 (centres unmarked) [IWP-12],block of tailfin regeneration,[2],effectively block
O=C(CSc1nc2c(c(=O)n1-c1ccccc1)SCC2)Nc1ccc(-c2ccccc2)cn1 [IWP-L6],stability in human plasma,[3],stable; also recorded: little degradation
same,t1/2 in rat plasma,"[4]; 2 μM, 37° C.",190 min
same,degradation in rat plasma (in words),"[4]; as a function of time, FIG. 5",much more significant degradation
same,t1/2 in murine liver S9 fractions,[5],26 min
same,solubility relative to IWP-2 (2) and 20,Relative solubility,more soluble
same,suppression of phosphorylation of dishevelled 2 (Dv12),[6],effectively suppressed; also recorded: blocks
same,dose that completely blocked branching morphogenesis,[7]; E11.5 kidneys,≥ 50 nM
same,dose that significantly reduced branching morphogenesis,"[7]; E11.5 kidneys, relative to DMSO treated controls",≥ 10 nM
same,inhibition of Wnt mediated branching morphogenesis (in words),[7]; FIG. 8A,inhibits
same,potency relative to IWP-2 (2),[7]; cultured E11.5 mouse kidneys,at least 100 times
same,inhibition of posterior axis formation,[8],effectively inhibit; also recorded: inhibits
same,fin regeneration after chemical removal,"[9]; resected caudal fins, 7 d in water containing compound, then removal",nearly normal levels
same,inhibition of tailfin regeneration (comparison in words),"[9]; zebrafish, FIG. 6",more potent activity; also recorded: more significant
same,t1/2 in murine plasma,"[10]; 2 μM, 37° C.",2 min
same,degradation in mouse plasma (in words),"[10]; as a function of time, FIG. 5",much more significant degradation
same,EC50 (in words),[11],sub-nanomolar
same,Porcn-inhibiting activity (in words),"[11]; general structure C, FIG. 3 series",slight improvement of activity
O=C(Nc1cccc2cccnc12)c1ccc(N2C(=O)[C@@H]3[C@H](C2=O)[C@@H]2C=C[C@H]3C2)cc1 [IWR-1],block of tailfin regeneration,[2],effectively block
